Laboratory results as given in US7790435B2, “Chemical induction in quiescence in bacteria” (priority 2005, dated 2010).
“Also recorded” adds a separate entry of the source. Like-named read-outs stand apart in the source and are kept apart here.

Assays:
[1] = test system: E. coli W3110hns-205::Tn10; type: cell-based; details: 3 mM, L-broth containing tetracycline, 37° C.; for Growth inhibition: semi-quantitative estimate
Description: A single E. coli colony (W3110 hns-205::Tn10) was picked from an L-agar plate containing tetracycline (10 μg ml^−1) and inoculated into 10 ml L-broth. This was grown overnight in a shaking incubator at 37° C. 200 μl of overnight culture was inoculated into 20 ml L-broth in a 50 ml conical flask, and grown at 37° C. in a shaking water bath to an optical density at 600 nm (OD600) of between 0.2 and 0.3. Two ml of this culture was inoculated into 18 ml pre-warmed L-broth containing tetracycline (10 μg ml^−1) to which had been added an appropriate volume of indole, isoquinoline, indoline, tryptamine, quinoline, or pyrrole stock solution (0.5 M in ethanol), IAA stock solution (0.5 M in water), 3-β-indoleacrylic acid stock solution (0.125 M in ethanol) or 1-acetylindoline stock solution (0.25 M in ethanol) to give a final concentration of 3 mM.

[2] = test system: E. coli W3110hns-205::Tn10; type: cell-based; details: L-broth containing tetracycline
W3110 rnc-14 = assay: Indole-induced quiescence in an rnc mutant (FIG. 6); type: cell-based, E. coli; details: 2 mM indole
Description: For the experimentation for which results are shown in FIG. 6, a culture of W3110 rnc-14 was grown in L-broth at 37° C. to a density of OD600=0.15. The culture was divided into two (t=0) and indole (2 mM) was added to one of the sub-cultures. Growth of the cultures was measured over the following 27 hours. While the control culture eventually reached stationary phase at OD600=2, the indole-treated culture entered a non-growing state after approximately 7 hours and remained at a density of OD600=1 (approx.).

[3] = test system: W3110hns-205 containing pCMT2blacZ; assay: Growth and beta-galactosidase (LacZ) expression in indole-treated culture (FIG. 5); type: cell-based, E. coli; details: 2 mM indole, 42° C.
Description: For the experimentation for which results are shown in FIGS. 5a and 5b, W3110hns-205 containing pCMT2blacZ (a plasmid which contains the coding sequence for beta-galactosidase, transcribed from promoter lambda PL under the control of the temperature sensitive repressor cI857) was grown in L-broth at 30° C. to OD600=0.15. The culture was then divided into two and the temperature was increased to 42° C. to induce lacZ expression. Indole (2 mM) was added immediately to one subculture to induce a quiescent state, while the other was an indole-free control. Beta-galactosidase activities were measured for 24 hours after the temperature shift.

[4] = test system: W3110hns205 containing plasmid pCMT2bompAhGM-CSF; assay: hGM-CSF expression in indole-treated cultures, ELISA of total cell lysates (FIG. 4); type: cell-based, E. coli; details: for hGM-CSF production: 42° C., L-broth
Description: For the experimentation for which results are shown in FIG. 4, W3110hns205 containing plasmid pCMT2bompAhGM-CSF^(see below) (which contains the coding sequence for the cytokine hGM-CSF fused to an ompA leader sequence, transcribed from promoter lambda PL under the control of the temperature sensitive repressor cI857) was grown in L-broth at 30° C. to an OD600 of 0.36, at which point the culture was transferred to 42° C. to induce cytokine expression. Simultaneously indole was added to the growth medium at final concentrations of 0, 2 or 4 mM (FIG. 4a).
Cytokine production was quantified by ELISA of total cell lysates and assay data were normalised for culture density (FIG. 4b). […] In the control culture (no indole), hGM-CSF increased in the first hour before declining.

E. coli W3110 = assay: Growth of W3110 in tryptone water broth supplemented with indole (FIG. 2a); type: cell-based; details: 37° C.
Description: (§1) For the experimentation for which results are shown in FIG. 2a and FIG. 2b, W3110 and W3110hns-205 (Mukherjee et al., 2004) were cultured at 37° C. in tryptone water broth (Oxoid) supplemented with 0, 2 or 4 mM indole.

W3110hns-205 pcIts857 = assay: Comparison of indole- and Rcd-induced quiescence (FIG. 7); type: cell-based, E. coli; details: 42° C., L-broth
Description: The experiment for which results are shown in FIG. 7 compared the growth kinetics of Rcd-induced and indole-induced quiescent cultures. Cultures of W3110hns-205 pcIts^857 (Remaut et al., 1983) transformed with either pRcd1 (Rcd expression plasmid; Mukherjee et al., 2004)) or pUCdeltalacZ (control plasmid; no Rcd) were grown in L-broth at 30° C. for 90 minutes, then 2×5 ml aliquots of each culture were transferred to 50 ml conical flasks, pre-warmed to 42° C. (t=0). The temperature shift induces Rcd expression in cultures containing plasmid pRcdl but not in cultures containing pUCdeltalacZ. For each pair of cultures, indole (final concentration 2 mM) was added to one of them. IPTG was added to all cultures so that the induction of chromosomal LacZ could be monitored. Culture density was monitored over the following 24 h.

W3110 hns205 = assay: Indole-induced quiescence of W3110 hns205 in broth culture (FIG. 2a, 2b, 3); type: cell-based, E. coli
Description: as §1
For the experimentation for which results are shown in FIG. 3a and FIG. 3b, W3110hns205 was cultured in L-broth at 30° C. (FIG. 3a) or 42° C. (FIG. 3b). At t=0 each culture was split into two and indole (final concentration 2 mM) was added to one part. […] The control cultures (no indole) continued to grow until they reached stationary phase.

E. coli BW25113 = assay: Growth inhibition of E. coli BW25113 by indole in L-broth (FIG. 1); type: cell-based; details: 37° C.
Description: For the experimentation for which results are shown in FIG. 1, E. coli BW25113 (Datsenko & Wanner, 2000)was grown overnight at 37° C. in L-broth (Kennedy, 1971). The stationary phase culture was used to inoculate a series of L-broth cultures supplemented with indole (0-6 mM) and their growth was monitored over the next 7 hours.

E. coli gene mdtE = details: 2 mM indole; cited from earlier work

## CC(=O)N1CCc2ccccc21 [1-acetylindoline]
[1]
  effect on growth (in words): substantial growth inhibition, but less severe than that shown by indole; also recorded: significant inhibitory effects

## c1ccc2ncccc2c1 [quinoline]
[1]
  effect on growth (in words): significant inhibitory effects
[1]; listed as Quinoline
  effect on growth (in words): some inhibition of growth but their effect was less severe than indole; also recorded: substantial growth inhibition, but less severe than that shown by indole

## pyrrole
[1]
  effect on growth (in words): no observed inhibitory effect
  Growth inhibition: −
[1]; listed as Pyrrole
  effect on growth (in words): not observed to have a significant effect on growth

## NCCc1c[nH]c2ccccc12 [tryptamine]
[1]
  effect on growth (in words): some inhibition of growth but their effect was less severe than indole; also recorded: slight growth inhibition

## c1ccc2c(c1)CCN2 [indoline]
[1]
  effect on growth (in words): some inhibition of growth but their effect was less severe than indole
[1]; listed as Indoline
  effect on growth (in words): slight growth inhibition

## c1ccc2[nH]ccc2c1 [indole]
[2]
  minimum concentration which causes immediate growth inhibition: 3 mM
W3110 rnc-14
  induction of quiescence: induce quiescence; also recorded: enters quiescence
W3110 rnc-14; L-broth, 37° C.
  culture density OD600 in non-growing state: ~1
  time to enter a non-growing state: approximately 7 hours
[3]; L-broth
  final OD600: 0.78
[3]; after 24 h
  beta-galactosidase activity: 27,000 MU
[4]; 2 mM indole, quiescent culture
  hGM-CSF production: increased rapidly for the first hour
[4]; 2 mM indole, normalised for culture density
  peak hGM-CSF concentration of control culture (no indole) relative to quiescent culture: less than half
[4]; 4 mM indole
  hGM-CSF production: produced no hGM-CSF
E. coli W3110; 2 mM indole
  effect on growth: partial growth inhibition; also recorded: reduced growth rate
E. coli W3110; 4 mM indole
  effect on growth: inhibited growth severely; also recorded: completely inhibited growth
W3110hns-205 pcIts857; 2 mM indole plus Rcd expression (pRcd1)
  induction of quiescence: entered a quiescent state but more rapidly and reached a lower final density
W3110hns-205 pcIts857; 2 mM indole, no Rcd
  induction of quiescence: enter a quiescent state with similar growth kinetics; also recorded: entered a quiescent state
W3110 hns205; 2 mM indole, L-broth
  effect on growth: enter a quiescent state
W3110 hns205; 2 mM indole, L-broth, 30° C. or 42° C.
  induction of quiescence: induce quiescence; also recorded: entered the quiescent state with similar kinetics at both temperatures
W3110 hns205; 2 mM indole, at 30° C., 37° C. and 42° C.
  persistence of the quiescent state: at least 24 hours
W3110 hns205; 4 mM indole, L-broth
  effect on growth: complete growth inhibition
W3110 hns205; 4 mM indole, tryptone water broth, 37° C.
  effect on growth: almost complete inhibition of growth
W3110 hns205; shake-flask culture
  appropriate final concentration of indole to induce quiescence: 2 mM
[1]
  Growth inhibition: +++
E. coli BW25113; 1 mM indole
  effect on growth: growth inhibition was not evident; also recorded: no effect upon growth
E. coli BW25113; 2 or 3 mM indole
  effect on growth: partial inhibition; also recorded: slowing of the growth rate
E. coli BW25113; 4, 5 or 6 mM indole
  effect on growth: Growth inhibition was severe; also recorded: almost complete inhibition of growth
E. coli gene mdtE
  elevation of expression: 22 fold

## c1ccc2cnccc2c1 [isoquinoline]
[1]
  effect on growth (in words): very similar effects to indole; also recorded: significant inhibitory effects
  Growth inhibition: +++
[1]; listed as Isoquinoline
  effect on growth (in words): very similar effects to indole

## O=C(O)Cc1c[nH]c2ccccc12 [IAA, indole-3-acetic acid]
[1]
  effect on growth (in words): slight stimulation of growth
  Growth inhibition: −^b
[1]; listed as indole acetic acid
  effect on growth (in words): not observed to have a significant effect on growth

## O=C(O)/C=C/c1c[nH]c2ccccc12 [3-β-indoleacrylic acid]
[1]
  effect on growth (in words): very similar effects to indole; also recorded: significant inhibitory effects
  Growth inhibition: +++
